US6455057B1, “Skin care composition” (Elizabeth Arden Co., div. of Conopco, Inc., priority 1999, dated 2002)
Where “and” joins values, the source holds several entries; their conditions need not be identical. Equal entries are not always repeated.

Assays:
Type in all cases: cell-based
[1] = test system: decorin synthesis in human dermal fibroblasts; assay: Dot blot assay for decorin protein in dermal fibroblast conditioned medium
Experimental: (§1) Primary human foreskin fibroblasts at passage 2 (P2) were seeded into 12-well plates at 10000 cells/cm^2 and maintained for 24 hours in an atmosphere of 5% carbon dioxide and 4% oxygen in Dulbeccos Modified Eagles Medium (DMEM) supplemented with 10% foetal calf serum. After this time the cells were washed with serum free DMEM and then incubated in fresh serum free DMEM for a further 60 hours. The fibroblast monolayers were then washed again with serum free DMEM. Test reagents and vehicle controls were added to the cells in triplicate in a final volume of 0.4 ml/well fresh serum free DMEM and incubated for a further 24 hours. This fibroblast conditioned medium was either analysed immediately or snap frozen in liquid nitrogen and stored at −70° C. for future analysis. The cells were then counted and data from the dot-blot analysis subsequently standardised to cell number.
(§2) Samples of conditioned medium from dermal fibroblasts treated with vehicle (as a control) or test reagents were supplemented with 20 mM dithiothreitol (1:10 dilution of 200 mM stock solution) and 0.1% sodium dodecylsulphate (1:100 dilution of 10% stock solution), mixed well and then incubated at 75° C. for 2 minutes. A standard for the assay was generated by serial dilution of neat fibroblast conditioned medium from fibroblasts seeded at 10000 cells/cm^2 in a 175 cm^2 flask and maintained in serum free DMEM as described above.
Assay samples were subsequently applied in triplicate to a prewetted sheet of Immobilon-P transfer membrane using the 96-well Bio-Dot Apparatus from Bio-Rad as described in the manufacturers guidelines. Approximately 200 μl of medium was applied per well. The medium was allowed to filter through the membrane under gravity (30 minutes) after which the membrane was washed twice with PBS (200 μl). These PBS washes were allowed to filter through the membrane under gravity (2×15 minutes). The Bio-Dot apparatus was then attached to a vacuum manifold and a third and final PBS wash carried out under suction. The apparatus was disassembled, the membrane removed and quickly cut as required before being placed in blocking buffer overnight at 4° C. Membranes prepared for decorin analysis were blocked with 3% (w/v) BSA/0.1% (v/v) Tween 20 in PBS, whilst those for procollagen-I analysis were blocked with 5% (w/v) non fat dried milk powder/0.05% Tween 20 in PBS.
Following this the Immobilon strips were again washed with TBS/Tween 20 (3×5 minutes) before being allowed to dry in air at room temperature. The dried membranes were wrapped in cellophane and exposed to a Molecular Dynamics storage phosphor screen for 16-18 hours. At the end of this time the exposed screen was scanned by a phosphorimager (Molecular Dynamics Phosphorimager SF) using ImageQuant™ software. Dot intensity was assessed by computer-assisted image analysis using the quantification tools in ImageQuant™, standardised to cell number and the effects of various test reagents on decorin and procollagen-I synthesis were determined relative to a vehicle treated control value of 100 arbitrary units.

[2] = test system: ICAM production by human skin fibroblasts; assay: Fibroblast ICAM-1 assay (PMA-induced)
Experimental: Intracellular adhesion molecules (ICAM) and PEG2 production by human skin fibroblasts can be induced by the inflammatory stimulus PMA (phorbal myristate acetate). PMA represents an external stressor which induces oxidative stress and inflammatory responses in cells.
Primary human foreskin fibroblasts at passage 2 (P2) were seeded into 96-well plates at 10000 cells/well and maintained for 24 hours in an atmosphere of 5% carbon dioxide in Dulbeccos Modified Eagles Medium (DMEM) supplemented with 10% foetal calf serum. The test substances as indicated in the table 2 below were added to fresh cell media (DMEM, supplemented with 10% foetal calf serum) in dimethylsulphoxide and ethanol final concentration<1%) in triplicate and incubated for a further 24 hours. Phorbal myristate acetate (PMA) (Sigma) was added 10 nM to the media and the cells incubated for a further 24 hours. […] The fibroblasts/media were then analysed as described below immediately or snap frozen in liquid nitrogen and stored at −70° C. for future analysis. The cells were then counted and data from the dot-blot analysis subsequently standardised to cell number.
Media were discarded and cells washed with Dulbecco PBS. To the washed cells, 150 μl 0.1% Triton X-100 (Sigma) was added for 3 minutes to extract ICAM from cell membrane. The extracts were transferred to Eppendoff centrifuge tubes and centrifuged at 1000 g for 2 min to remove cell debris. A volume of 100 μl supernatant was used for ICAM assay. The soluble ICAM-1 was assessed with commercially available immunoenzymometric assay kit (R&D Systems). Concentrations of ICAM-1 in the samples were determined based on parallel running standard curve.

[3] = test system: procollagen-I synthesis in human dermal fibroblasts; assay: Dot blot assay for procollagen-I protein in dermal fibroblast conditioned medium; settings: vehicle control = 100
Experimental: as §1, §2
Assay samples were subsequently applied in triplicate to a prewetted sheet of Immobilon-P transfer membrane using the 96-well Bio-Dot Apparatus from Bio-Rad as described in the manufacturers guidelines. Approximately 200 μl of medium was applied per well. The medium was allowed to filter through the membrane under gravity (30 minutes) after which the membrane was washed twice with PBS (200 μl). These PBS washes were allowed to filter through the membrane under gravity (2×15 minutes). The Bio-Dot apparatus was then attached to a vacuum manifold and a third and final PBS wash carried out under suction. The apparatus was disassembled, the membrane removed and quickly cut as required before being placed in blocking buffer overnight at 4° C. […]
Following this the Immobilon strips were again washed with TBS/Tween 20 (3×5 minutes) before being allowed to dry in air at room temperature. […] Dot intensity was assessed by computer-assisted image analysis using the quantification tools in ImageQuant™, standardised to cell number and the effects of various test reagents on decorin and procollagen-I synthesis were determined relative to a vehicle treated control value of 100 arbitrary units.

[4] = test system: PGE2 production by human skin fibroblasts; assay: Fibroblast PGE2 assay (PMA-induced); settings: PMA 10 nM + genistein 1 μM, read-out: % of Inhibition Of Fibroblast PGE2 Levels
Experimental: Primary human foreskin fibroblasts at passage 2 (P2) were seeded into 96-well plates at 10000 cells/well and maintained for 24 hours in an atmosphere of 5% carbon dioxide in Dulbeccos Modified Eagles Medium (DMEM) supplemented with 10% foetal calf serum. The test substances as indicated in the table 2 below were added to fresh cell media (DMEM, supplemented with 10% foetal calf serum) in dimethylsulphoxide and ethanol final concentration<1%) in triplicate and incubated for a further 24 hours. Phorbal myristate acetate (PMA) (Sigma) was added 10 nM to the media and the cells incubated for a further 24 hours. […] The fibroblasts/media were then analysed as described below immediately or snap frozen in liquid nitrogen and stored at −70° C. for future analysis.
Volumes of 50 μl culture medium were taken for PGE2 assay after gently shaking the culture plate. PGE2 levels in the medium were determined with a Biotrak PGE2 immunoassay kit (Amersham, UK). The assay is based on the competition between unlabelled PGE2 in the sample and a fixed quantity of horseradish peroxidase labelled PGE2 for a limited amount of fixed PGE2 specific antibody. Concentrations of unlabelled sample PGE2 are determined according to a standard curve which was obtained at the same time.

O=C(O)c1cc(O)c(O)c(O)c1 [gallic acid]
Decorin ([1]; 0.001 μg/ml gallic acid, vehicle control = 100): 96.6%

O=c1c(O)c(-c2ccc(O)c(O)c2)oc2cc(O)cc(O)c12 [quercetin]
inhibition at 10 µM ([2]; Homo sapiens, Skin fibroblast, PMA 10 nM + quercetin 10 μM): 27.8%
Decorin ([1]; 1 μM quercetin, vehicle control = 100): 97.60%

O=C(O[C@@H]1Cc2c(O)cc(O)cc2O[C@@H]1c1cc(O)c(O)c(O)c1)c1cc(O)c(O)c(O)c1 [EGCG, epigallocatechin gallate]
% of inhibition of fibroblast ICAM production ([2]; PMA 10 nM + EGCG 10 μM): 14.4%
Decorin ([1]; 0.005 μg/ml EGCG, vehicle control = 100): 118.4%
Decorin ([1]; 0.05 μg/ml EGCG, vehicle control = 100): 111.7%
Decorin ([1]; 0.5 μg/ml EGCG, vehicle control = 100): 120.2%

CCCCCCCCCCC/C=C\CCCCC(=O)O [PA, petroselinic acid]
Decorin ([1]; 0.01 μM PA, relative to vehicle treated control = 100 arbitrary units, separate experiments): 102.7% and 100.9% and 95.08% and 93.97% and 93.7% and 91.6%
Decorin ([1]; 0.1 μM PA, vehicle control = 100): 100.3%
Procollagen-I ([3]; 0.01 μM PA): 117.34%
Procollagen-I ([3]; 0.1 μM PA): 90.94%

O=c1c(-c2ccc(O)cc2)coc2cc(O)cc(O)c12 [genistein]
inhibition at 1 µM [4]: 86.2%
inhibition at 1 µM ([2]; Homo sapiens, Skin fibroblast, PMA 10 nM + genistein 1 μM): 30.6%
Decorin ([1]; 1 μM genistein, vehicle control = 100): 99.75%
Procollagen-I ([3]; 1 μM genistein): 101.74%

O=c1c(-c2ccc(O)cc2)coc2cc(O)ccc12 [daidzein]
Decorin ([1]; 0.01 μM daidzein, vehicle control = 100): 92.83%
Procollagen-I ([3]; 0.01 μM daidzein): 96.04%
